Measurements reported in US20220340955A1, “METHODS FOR DIAGNOSING AND TREATMENT MONITORING OF ADNP-DEFICIENT PATIENTS” (RAMOT AT TEL-AVIV UNIVERSITY LTD., priority 2019, published 2022).

Assays:
[1] = system: murine intestinal microbiota; assay: Murine fecal microbiota analysis (qRT-PCR, 16S rRNA gene) in Adnp+/− mouse model; type: in vivo
Procedure: (§1) All procedures involving animals in the Adnp-mutated mouse model were approved by the Animal Care and Use Committee of Tel Aviv University and the Israeli Ministry of Health. Adnp heterozygous mice (Adnp^+/−) on an ICR background (an outbred mouse line), a model for the ADNP syndrome (Hacohen-Kleiman et al. 2018), were housed in a 12-h light/12-h dark cycle facility with free access to rodent chow and water. Genotyping was performed by Transnetyx (Memphis, Tenn.). After genotyping, the mice were housed in separate cages based on sex, genotype and treatment (up to five mice per cage), for two weeks prior to beginning of NAP treatment.
(§2) NAP peptide was custom made as described in (Hacohen-Kleiman et al. 2018). Prior to behavioral tests, intranasal treatment was administered daily to 1-month-old male and female mice (0.5 μg/5 μl/mouse/dose). For intranasal administration, the peptide was dissolved in a vehicle solution, termed DD, in which each milliliter included 7.5 mg of NaCl, 1.7 mg of citric acid monohydrate, 3 mg of disodium phosphate dihydrate, and 0.2 mg of benzalkonium chloride solution (50%). Each mouse was handheld in a semi-supine position with nostrils facing the investigator. A pipette tip was used to administer 5 μl/two nostrils. The mouse was handheld until the solution was entirely absorbed (˜10 s). Nasal NAP application was performed daily, once a day, for 45 days (5 days a week). After 45 days of treatment, in days of scheduled behavioral tests, NAP was applied 2 h before the test.
Fecal pellets (1-2/mice) were collected 45 days after the beginning of treatment (NAP or DD) and stored at −80° C. until DNA purification procedures. The samples were thawed on ice mixed with 400 μl of sterile PBS/sample followed by mechanical disruption of the sample using a BeadBug microtube homogenizer (Daniel Biotech, Rehovot, Israel) for 2 minutes at 4,000 rpm. A 25 μl sample of lysozyme solution (20 mg/ml) was added, and the samples were incubated with shaking for 30 min at 37° C. on a thermo shaker racking platform. Next, 20 μl proteinase K (20 mg/ml) was included and the samples were thoroughly mixed with 400 μl of sterile lysis buffer (20 mM Tris HCl, 300 mM NaCl, 400 mM EDTA and 1% SDS) and incubated with shaking for 60 min at 56° C. on a thermo shaker racking platform. Next, 300 mg sterile zirconium beads and 150 μl of phenol was added to the samples followed by homogenization (twice for 40 sec. at 4,000 rpm, Daniel biotech, Rehovot, Israel). Then, 150 μl of CI-solution (chloroform-isoamyl alcohol 24:1) was added, mixed and submitted for centrifugation 13,000 rpm at room temperature for 5 minutes, Eppendorf Centrifuge 5417R (Eppendorf, Hamburg, Germany). A 600 μl volume of supernatant was removed and placed in a sterile 2 mL Eppendorf tube. 150 μl of CI-solution was then included and the samples were subjected to centrifugation as above. A 400 μl of aqueous, clear top phase was removed and placed in a sterile 2 mL Eppendorf tube. Then, the 400 μl of DNA solution was mixed with 100 μl of precipitation solution (40 mM EDTA 1.2M sodium acetate and 4 mg/ml glycogen). 1.3 mL of ice-cold 100% ethanol was added, the samples were then mixed and stored over night at −20° C. for DNA precipitation followed by centrifugation (13,000 rpm) at 4° C. The supernatant was discarded and the pellet washed with 500 μl ice-cold 70% ethanol followed by centrifugation for 5 minutes at 13,000 rpm, 4° C. (this step was repeated twice). The pellet was dried in the Speed Vac (Eppendorf Concentrator 5301) for 15 minutes and then re-suspended in 100 μl sterile water. Next, the samples were mixed on the shaker for 10 minutes at room temperature. In the next step, the samples were further purified using Qiagen Purification Kit according to the manufacturer's instructions ([…], Hilden, Germany). DNA was eluted in 100 μl sterile water and stored at −20° C. for long storage. […]

Adnp p.Tyr718* mice = assay: Visual evoked potential in CRISPR/Cas9 Adnp p.Tyr718* mice; type: in vivo, mouse; settings: Adnp p.Tyr718* mice (discovered in males), NAP treatment
Description: We have developed another Adnp mutated mouse model using CRISP/Cas9 technology. The mice carry the most prevalent ADNP syndrome mutation (e.g. Adnp p.Tyr718* in the mouse corresponding to ADNP pTyr719* in the human). […] Monitoring visual evoked potential provides an objective observation of aberrant ADNP activity on one hand and its correction by treatment, e.g. by NAP peptide on another hand. Given the results in Example 1, gut microbiota samples are now being analyzed and are correlated also to visual evoked potential responses of males and females, coupling biomarkers for better diagnostics and clinical monitoring. The following bacteria in gut microbiota are tested and correlated with changes in visual evoked potential in subjects having aberrant ADNP activity: Bifidobacterium, Clostridium, Bacteroides, Faecalibacterium, Eubacterium, Ruminococcus, Peptococcus, Peptostreptococcus, Parabacteroides, Escherichia coli, Verrucomicrobia, Lactobacillus, Clostridium coccoides group, Mouse Intestinal Bacteroides (MIB) Enterococcus genus (gEncocc) and Clostridium Cluster IV (sgClep).

Adnp+/− mice [2] = assay: Open field behavior of Adnp+/− mice; type: in vivo, mouse
Procedure: as §1, §2
The test provides a unique opportunity to systematically assess novel environment exploration, general locomotor activity, and anxiety-related behavior in rodents. […] The distance moved and time spent in the entire open field, as well as in its inner defined quadrants (center, border) was recorded using the EthoVision XT video tracking system and software (Noldus Inc. Leesburg, VA). […]

[3] = Body weight of Adnp+/− mice; type: in vivo, mouse; settings: male Adnp+/− cohort, NAP treatment
Procedure: as §1
as §2, with “Nasal NAP application was performed daily, once a day, for 45 days (5 days a week). After 45 days of treatment, in days of scheduled behavioral tests, NAP was applied 2 h before the test.” left out

Adnp+/− mice [4] = settings: exogenous administration of NAP; cited from earlier work
[5] = system: human microbiota-harboring mice suffering from subacute ileitis; settings: gut inflammation model; cited from earlier work
[6] = female Adnp+/− mice, fecal samples, intranasal NAP 0.5 μg/mouse daily, 45 days
[7] = females, genotype and NAP treatment effect
[8] = male Adnp+/− mice, fecal samples, intranasal NAP 0.5 μg/mouse daily, 45 days
[9] = males, genotype and NAP treatment effect

## NAPVSIPQ
[1]; Adnp deficient mice
  Changes in microbiota (overall effect of NAP treatment): partially reverses
[1]; female Adnp+/+ mice, fecal samples, NAP treated (data not shown)
  Total Eubacterial loads: essentially lower total Eubacterial loads
[1]; female Adnp+/− mice
  Trending genotype increases in microbiota groups corrected by NAP treatment: significantly corrected two trending genotype increases
[1]; [6]
  Clostridium coccoides group (Coer) abundance: significant NAP-dependent decreases
  Enterococcus genus (gEncocc) numbers: lower fecal Enterococcus genus (gEncocc) numbers
[1]; [7]
  Bacteroides/Prevotella spp (Bac) abundance: neither affected by genotype nor by NAP treatment
  Bifidobacterium genus (BIF) abundance: neither affected by genotype nor by NAP treatment
  Enterobacteriaceae (Entero) abundance: neither affected by genotype nor by NAP treatment
  Eubacteriaceae (EubV3) abundance: neither affected by genotype nor by NAP treatment
  Mouse Intestinal Bacteroides (MIB) abundance: neither affected by genotype nor by NAP treatment
[1]; male Adnp+/+ controls, NAP treated compared to placebo treated (data not shown)
  Clostridium coccoides group (Coer) intestinal numbers: higher intestinal numbers
[1]; male Adnp+/− mice
  Genotype affected microbiota groups whose deficit was reversed by NAP treatment: four out of five
[1]; [8]
  Bifidobacterium genus (BIF) abundance: decreased to control levels
  Clostridium coccoides group (Coer) abundance: except for Clostridium coccoides group (Coer) decreased to control levels
  Lactobacillus group (Lacto) abundance: decreased to control levels
  Mouse Intestinal Bacteroides (MIB) abundance: decreased to control levels
  Total Eubacterial loads (EubV3): decreased to control levels
[1]; [9]
  Bacteroides/Prevotella spp (Bac) abundance: neither affected by genotype nor by NAP treatment
  Clostridium Cluster IV (sgClep) abundance: neither affected by genotype nor by NAP treatment
  Enterobacteriaceae (Entero) abundance: neither affected by genotype nor by NAP treatment
  Enterococcus genus (gEncocc) abundance: neither affected by genotype nor by NAP treatment
Adnp p.Tyr718* mice
  Aberrant visual evoked potential patterns: rapidly corrected
Adnp+/− mice [2]; Adnp deficient mice
  Behavioral changes (overall effect of NAP treatment): partially reverses
Adnp+/− mice [2]; Adnp+/+, Adnp+/− and NAP treated Adnp+/− mice, FIG. 3B
  Time spent in the center area (open field): did not reveal significant changes
Adnp+/− mice [2]; untreated male Adnp+/− mice vs Adnp+/+ (p<0.01) and vs NAP treated Adnp+/− mice (p<0.05), FIG. 3A
  Frequency entrance to the center area (open field): significantly higher frequency entrance in to the center area compared to Adnp^+/+ mice and NAP treated Adnp^+/− mice
[3]
  Body weight: increased weight
Adnp+/− mice [4]
  Behavioral and developmental defects: at least partially reverse behavioral and developmental defects
[5]
  Anti-inflammatory effects: anti-inflammatory NAP effects were observed
